Experiments:
5HT2C receptors = target: T1, 5HT2C receptors (Rattus norvegicus, UniProt P08909); assay: Penile erection test; format: in vivo; settings: rats
T1 construct: from tissue; host or cells: whole animal (rat), in vivo
T1 sequence (P08909 33-460): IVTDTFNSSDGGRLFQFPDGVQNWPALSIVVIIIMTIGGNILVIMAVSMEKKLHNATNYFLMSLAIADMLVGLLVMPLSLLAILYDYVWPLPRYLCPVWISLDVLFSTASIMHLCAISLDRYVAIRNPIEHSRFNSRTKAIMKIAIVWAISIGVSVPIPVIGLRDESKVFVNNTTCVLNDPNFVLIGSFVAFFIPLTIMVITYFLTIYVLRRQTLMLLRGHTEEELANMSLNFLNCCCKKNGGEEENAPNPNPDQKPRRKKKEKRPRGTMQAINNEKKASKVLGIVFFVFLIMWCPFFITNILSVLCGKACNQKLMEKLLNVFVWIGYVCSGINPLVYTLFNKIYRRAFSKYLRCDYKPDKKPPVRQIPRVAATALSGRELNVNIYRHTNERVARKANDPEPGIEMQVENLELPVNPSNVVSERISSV
Text: This test, carried out according to the protocol of Berendsen et al ["In volvement of 5-HT1C receptors in drug-induced penile erections in rats" - Psychopharmacology 101: 57-61(1990)] enables the potential in vivo activity at 5HT2C receptors to be assessed.

human 5-HT2C = target: T2, human 5-HT2C (Homo sapiens, UniProt P28335); assay: Binding test, displacement of [3H]-mesulergine, cloned human receptors expressed in 3T3 cells; settings: cloned human receptor in 3T3 cells; [3H]-mesulergine displacement; read-out: Binding pKi 5HT2C (converted)
T2 construct: expressed in transfected cells; host or cells: 3T3 cells
T2 sequence (P28335 33-458): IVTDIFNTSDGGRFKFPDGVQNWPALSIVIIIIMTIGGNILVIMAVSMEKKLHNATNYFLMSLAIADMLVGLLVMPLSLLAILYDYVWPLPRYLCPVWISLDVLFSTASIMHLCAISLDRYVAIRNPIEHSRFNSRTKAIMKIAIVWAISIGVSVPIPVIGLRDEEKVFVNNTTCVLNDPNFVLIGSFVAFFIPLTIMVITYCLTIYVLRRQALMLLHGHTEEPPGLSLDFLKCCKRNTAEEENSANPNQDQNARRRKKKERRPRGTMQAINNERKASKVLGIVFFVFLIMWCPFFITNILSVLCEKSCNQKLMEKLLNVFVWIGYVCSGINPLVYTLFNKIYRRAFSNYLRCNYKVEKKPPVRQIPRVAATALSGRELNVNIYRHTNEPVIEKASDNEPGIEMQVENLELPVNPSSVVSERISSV
Procedure: (§1) The tests are carried out using cloned human receptors expressed in 3T3 cells according to the protocols described in Stam et al "Genomic organization, coding sequence and functional expression of human 5-HT2 and 5-HT1A receptor genes" - European Journal of Pharmacology - Molecular Pharmacology Section 227: 153-162 (1993) and Stam et al "Genomic organisation and functional expression of the gene encoding the human serotonin 5-HT2C receptor" - European Journal of Pharmacology - Molecular Pharmacology Section 269: 339-348 (1994).

DRL-72 test = format: in vivo; settings: rats, operant performance
Text: This test, carried out according to the protocol of Andrews et al ["Effects of imipramine and mirtazapine on operant performance in rats" - Drug Development Research 32: 58-66 (1994)], gives an indication of potential antidepressant-like activity.

human 5-HT2A receptors = target: T3, human 5-HT2A receptors (Homo sapiens, UniProt P28223); assay: Binding test, displacement of [3H]-ketanserin, cloned human receptors expressed in 3T3 cells; settings: cloned human receptor in 3T3 cells; [3H]-ketanserin displacement; read-out: Binding pKi 5HT2A (converted)
T3 construct: expressed in transfected cells; host or cells: 3T3 cells
T3 sequence (P28223 whole entry): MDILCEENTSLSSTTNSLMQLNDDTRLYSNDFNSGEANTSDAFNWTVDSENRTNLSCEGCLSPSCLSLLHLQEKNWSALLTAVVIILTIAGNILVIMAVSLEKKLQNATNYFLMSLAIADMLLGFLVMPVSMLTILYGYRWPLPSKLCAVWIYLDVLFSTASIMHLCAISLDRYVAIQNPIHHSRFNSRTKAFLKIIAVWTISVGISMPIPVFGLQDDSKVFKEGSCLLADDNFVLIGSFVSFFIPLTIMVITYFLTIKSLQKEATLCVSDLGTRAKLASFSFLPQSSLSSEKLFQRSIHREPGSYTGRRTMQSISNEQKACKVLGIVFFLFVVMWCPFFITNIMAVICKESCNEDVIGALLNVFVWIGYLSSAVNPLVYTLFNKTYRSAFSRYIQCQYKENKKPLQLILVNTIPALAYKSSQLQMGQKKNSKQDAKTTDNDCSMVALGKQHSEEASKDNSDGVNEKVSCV
Procedure: as §1

| Structure (SMILES) | Erection of the penis (MED, mg.kg-1) (5HT2C receptors) [mg/kg] | Ki (human 5-HT2C) [nM] | Increase in pellets earned in DRL-72 (MED, mg.kg-1) (DRL-72 test) [mg/kg] | Ki (human 5-HT2A receptors) [nM] |
| --- | --- | --- | --- | --- |
| COc1ccc2c(c1OC1CCNC1)CCC2.Cl (racemic) [Compound 10b, (rac)-3-[(2,3-Dihydro-5-methoxy-1H-inden-4-yl)oxy] pyrrolidine hydrochloride] | 1 | 25.1 | 10 | – |
| COc1ccc2c(c1OC1CNC1)CCC2.Cl [Compound 5d, 3-[(2,3-Dihydro-5-methoxy-1H-inden-4-yl)oxy]-azetidine hydrochloride] | 1 | 31.6 | 10 | 398 |
| COc1ccc2c(c1O[C@H]1CCNC1)CCC2.Cl [Compound 9a, (S)-(+)-3-[(2,3-Dihydro-5-methoxy-1H-inden-4-yl)oxy]-pyrrolidine hydrochloride] | 0.46 | 10 | 3 | – |
